Values quoted from earlier work, collected in US20050042712A1, “Methods, compositions and instruments to predict antimicrobial or preservative activity” (ADVANCED MEDICAL OPTICS, INC., priority 2003, published 2005).
Read-outs that look alike come from different tables or passages of the source.

In the case of `O=C1OC2(c3ccccc31)c1cc(Br)c(O)c(Br)c1Oc1c2cc(Br)c(O)c1Br.[Na].[Na]` [Eosin Y, 2′,4′,5′,7′-Tetrabromo-3′,6′-dihydroxyspiro(isobenzofuran-1(3H),9′-(9H)xanthen)-3-one disodium salt], the pKa (carboxyphenyl group) is given as 2.7, the pKa (phenolate anion) is given as 3.6 and the solubility in water (water) is given as “freely soluble in water”.
